From patent publication US11253499B2, “Compounds” (priority 2017, dated 2022)
Read-outs that look alike come from different tables or passages of the source.

Tests used:
[1] = test system: M. tuberculosis H37Rv-GFP; type: cell-based, Mycobacterium tuberculosis; settings: read-out: EC50_H37Rv
[2] = test system: Mycobacterium tuberculosis H37Rv in human macrophages THP-1
Description: Mycobacterium tuberculosis In Vitro H37Rv in Human Macrophaqes THP-1 Inhibition Assay (Intracellular Assay)
Procedure was carried out as described in Sorrentino, F. et al. (2016) Antimicrob. Agents Chemother. 60 (1), 640-645 (supplemental material), except that before THP-1 infected cells were seeded in 384 well plates, infected macrophages were filtered in the last step of wash steps with a 40 um cell strainer to remove cell clumps and obtain single cell suspension.
The compounds of the examples were tested essentially in accordance with the above-mentioned assay (without the presence of ethionamide).

[3] = potentiation of ethionamide, ETH 0.1 μg/ml, […], 5 days at 37° C., […]

Compound	EC50 [1, 3]	EC50 [1]	IC50 [2]
O=C(CCC(F)(F)F)N1CC(N2CCCCC2)C1 [Example 39, 4,4,4-trifluoro-1-(3-(piperidin-1-yl)azetidin-1-yl)butan-1-one]	1000 to 10000 nM		
O=C(CCC(F)(F)F)N1CC(C2CC2)C1 [Example 4, 1-(3-cyclopropylazetidin-1-yl)-4,4,4-trifluoro-butan-1-one]		250 to 500 nM	50 to 250 nM
CC1(c2ccc(F)cc2)CN(C(=O)CCC(F)(F)F)C1 [Example 42, 4,4,4-trifluoro-1-(3-(4-fluorophenyl)-3-methylazetidin-1-yl)butan-1-one]		< 50 nM	< 50 nM
O=C(CCC(F)(F)F)N1CC(c2ccc(F)cc2)C1 [Example 1, 4,4,4-trifluoro-1-[3-(4-fluorophenyl)azetidin-1-yl]butan-1-one]		< 50 nM	< 50 nM
COc1ccc(C2CN(C(=O)CCC(F)(F)F)C2)cn1 [Example 22, 4,4,4-trifluoro-1-[3-(6-methoxy-3-pyridyl)azetidin-1-yl]butan-1-one]	< 50 nM		
O=C(CCC(F)(F)F)N1CC(c2ccc(F)c(F)c2)C1 [Example 27, 1-[3-(3,4-difluorophenyl)azetidin-1-yl]-4,4,4-trifluoro-butan-1-one]	< 50 nM		
O=C(CCC(F)(F)F)N1CC(c2ccc(F)cn2)C1 [Example 9, 4,4,4-trifluoro-1-[3-(5-fluoro-2-pyridyl)azetidin-1-yl]butan-1-one]		50 to 250 nM	50 to 250 nM
O=C(CCC(F)(F)F)N1CC(c2ccc(C(F)(F)F)cc2)C1 [Example 16]		50 to 250 nM	250 to 500 nM
O=C(CCC(F)(F)F)N1CC(N2CCC(F)(F)CC2)C1 [Example 35, 1-[3-(4,4-difluoro-1-piperidyl)azetidin-1-yl]-4,4,4-trifluoro-butan-1-one]	500 to 1000 nM		
O=C(CCC(F)(F)F)N1CC(c2cc(F)c(F)c(F)c2)C1 [Example 34, 4,4,4-trifluoro-1-[3-(3,4,5-trifluorophenyl)azetidin-1-yl]butan-1-one]		< 50 nM	50 to 250 nM
O=C(CCCC(F)(F)F)N1CC(c2ccc(F)cc2)C1 [Example 3, 5,5,5-trifluoro-1-[3-(4-fluorophenyl)azetidin-1-yl]pentan-1-one]		< 50 nM	50 to 250 nM
O=C(CCC(F)(F)F)N1CC(c2ccncc2)C1 [Example 30, 4,4,4-trifluoro-1-[3-(4-pyridyl)azetidin-1-yl]butan-1-one]	1000 to 10000 nM		
O=C(CCC(F)(F)F)N1CC(c2ccc(C(F)(F)F)cn2)C1 [Example 8, 4,4,4-trifluoro-1-[3-[5-(trifluoromethyl)-2-pyridyl]azetidin-1-yl]butan-1-one]		250 to 500 nM	1000 to 10000 nM
O=C(CCC(F)(F)F)N1CC(c2cc(Cl)ccn2)C1 [Example 11, 1-[3-(4-chloro-2-pyridyl)azetidin-1-yl]-4,4,4-trifluoro-butan-1-one]		50 to 250 nM	50 to 250 nM
O=C(CCC(F)(F)F)N1CC(c2ccc(F)cc2Cl)C1 [Example 20, 1-[3-(2-chloro-4-fluoro-phenyl)azetidin-1-yl]-4,4,4-trifluoro-butan-1-one]		50 to 250 nM	50 to 250 nM
O=C(CCC(F)(F)F)N1CC(c2ccnc(C(F)(F)F)c2)C1 [Example 12, 4,4,4-trifluoro-1-[3-[2-(trifluoromethyl)-4-pyridyl]azetidin-1-yl]butan-1-one]		250 to 500 nM	50 to 250 nM
O=C(CCC(F)(F)F)N1CC(c2ccnc(Cl)c2)C1 [Example 32, 1-[3-(2-chloro-4-pyridyl)azetidin-1-yl]-4,4,4-trifluoro-butan-1-one]	250 to 500 nM		
O=C(CCC(F)(F)F)N1CC(F)(c2ccc(F)cc2)C1 [Example 44, 4,4,4-trifluoro-1-(3-fluoro-3-(4-fluorophenyl)azetidin-1-yl)butan-1-one]	< 50 nM		
O=C(CCC(F)(F)F)N1CC(c2ccc(Cl)cc2)C1 [Example 13, 1-[3-(4-chlorophenyl)azetidin-1-yl]-4,4,4-trifluoro-butan-1-one]		< 50 nM	50 to 250 nM
O=C(CCC(F)(F)F)N1CC(c2ccc(OCC(F)(F)F)nc2)C1 [Example 37, 4,4,4-trifluoro-1-[3-[6-(2,2,2-trifluoroethoxy)-3-pyridyl]azetidin-1-yl]butan-1-one]	250 to 500 nM		
O=C(CCC(F)(F)F)N1CC(c2cccc(C(F)(F)F)c2)C1 [Example 2, 4,4,4-trifluoro-1-[3-[3-(trifluoromethyl)phenyl]azetidin-1-yl]butan-1-one]		< 50 nM	< 50 nM
O=C(CCC(F)(F)F)N1CC(c2cc(C(F)(F)F)ccn2)C1 [Example 7, 4,4,4-trifluoro-1-[3-[4-(trifluoromethyl)-2-pyridyl]azetidin-1-yl]butan-1-one]		50 to 250 nM	50 to 250 nM
